Assay results as given in patent publication US7576225B2, “6R-(3,6-dideoxy-L-arabino-hexopyranosyloxy) heptanoic acid, preparation process for the same and dauer effect thereof” (KDR Biotech. Co. Ltd., priority 2004, dated 2009).

Tested on: C. elegance
Experiment: Measurement of dauer formation effect activity
Assay type: in vivo, Caenorhabditis elegance
Protocol: Next, dauer formation effect of the compound of 6R-(3,6-dideoxy-L-arabino-hexopyranosyloxy)heptanoic acid (I), which is synthesized according to the present process of the invention, is measured using C. elegance.
That is, the dauer formation effect of the synthetic pheromone is measured using C. elegance tinder different feed, temperature and crowd density conditions from each other.
Although it should be passed from an L2 first half step or L3 second half step to an adult step in a condition where the feed and temperature (15-25° C.) are proper and the crowd density is low, when the synthetic pheromone is mixed, the step goes to dauer larva stage.
For comparison, seven C. elegances in the dauer larva and one C. elegance in the adult step are comparatively observed. […] In Picture 1, it can be noted that the C. elegance is not grown without moving.
To identify the dauer formation effect of the inventive pheromone, an activity is measured after the pheromone compound is supplied to S. basal agar culture medium without peptone (Vowels and Thomas, Genetics 130: 105-123, 1992).
The dauer formation effect activity of the inventive compound with respect to C. elegance is shown as Table 3.

## C[C@H](CCCCC(=O)O)O[C@@H]1O[C@@H](C)[C@H](O)C[C@H]1O [synthetic pheromone, 6R-(3,6-dideoxy-L-arabino-hexopyranosyloxy)heptanoic acid]
320 μg/plate of the synthetic pheromone, C. elegance
  dauer formation effect: 100%
Synthetic pheromone mixed in, proper feed and temperature (15-25° C.), low crowd density
  dauer formation effect (observation of larvae): greatly affects the dauer formation effect
